Measurements: PubChem BioAssay AID395 (SGCOxCompounds, 2006)

target: Serine/threonine-protein kinase 16 (Homo sapiens) (UniProt O75716); experiment: ligand-induced STK16 melting temperature shift – biophysical, recombinant human kinase, DSF (AID 395); conditions: recombinant STK16, DSF thermal shift, SYPRO orange; at 10 µM; protein 2 µM; buffer 10 mM HEPES; active compounds read high
Sequence (O75716 whole entry, looked up): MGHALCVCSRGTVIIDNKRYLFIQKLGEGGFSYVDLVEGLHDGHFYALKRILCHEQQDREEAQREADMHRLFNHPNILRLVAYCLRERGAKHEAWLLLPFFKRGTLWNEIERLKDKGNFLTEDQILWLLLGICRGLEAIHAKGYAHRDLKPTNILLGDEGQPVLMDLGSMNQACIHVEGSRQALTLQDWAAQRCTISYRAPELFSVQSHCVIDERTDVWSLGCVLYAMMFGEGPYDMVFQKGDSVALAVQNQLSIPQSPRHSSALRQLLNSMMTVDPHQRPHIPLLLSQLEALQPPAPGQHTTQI

Compound | Tm shift [°C]
O=c1c(O)c(-c2ccc(O)c(O)c2)oc2cc(O)cc(O)c12 | 4.78
O=C1Nc2ccccc2/C1=C/c1ccc[nH]1 | 4.28
O=C1Nc2ccccc2/C1=C\c1cnc[nH]1 | 7.49
Nc1ncnc2c1c(I)cn2[C@@H]1O[C@H](CO)C(O)C1O (stereo partly specified) | 3.88
c1ccc(-c2cnc3ccc(NCc4cccs4)nn23)cc1 | 3.62
Fc1ccc(CNc2ccc3ncc(-c4ccco4)n3n2)cc1 | 4.18
COc1ccc2c(c1)/C(=C/c1cnc[nH]1)C(=O)N2 | 4.35
O=c1[nH]c2ncc(-c3cccnc3)nc2n1C1CCCC1 | 5.29
Clc1ccc(-c2cnn3ccc(NCc4cccnc4)nc23)cc1 | 3.85
O=C1c2ccccc2-c2n[nH]c3cccc1c23 | 6.85
c1csc(-c2cnc3ccc(NCC4CC4)nn23)c1 | 4.3
COC(=O)c1cnc2oc3ccc(O)cc3c2c1-c1ccccc1 | 5.35
Clc1cccc(Nc2ccn3ncc(-c4cccnc4)c3n2)c1 | 5.48
O=c1cc(-c2ccc(O)cc2)oc2cc(O)cc(O)c12 | 4.78
CC(C)C(CO)Nc1nc(Nc2cccc(Cl)c2)c2ncn(C(C)C)c2n1 (stereo unspecified) | 3.15
Clc1cccc(-c2cnc3ccc(NC4CCOCC4)nn23)c1 | 4
CC1N=C2SC=CN2C(=O)C1CCN1CCC(=C(c2ccccc2)c2ccc(F)cc2)CC1 (stereo unspecified) | 3.67
O=Nc1c(-c2c(O)[nH]c3ccccc23)[nH]c2ccccc12 | 5.13
Cc1cc(C=C2C(=O)C=CC2=O)cc(C)c1O | 3.24
Clc1cccc(Nc2ccn3ncc(-c4ccsc4)c3n2)c1 | 3.69
CC(C)(C)c1nc2c3cc[nH]c(=O)c3c3cc(F)ccc3c2[nH]1 | 3.46

same assay, conditions: recombinant STK16, DSF thermal shift, SYPRO orange; at 10 µM; protein 2 µM; buffer 10 mM HEPES; pH 7.5; NaCl 150 mM; active compounds read high

Compound | Tm shift [°C]
O=c1c(O)c(-c2ccc(O)c(O)c2)oc2cc(O)cc(O)c12 | 4.75
N=C(N)SCCCn1cc(C2=C(c3c[nH]c4ccccc34)C(=O)NC2=O)c2ccccc21 | 4.3
CCN(CC)CCNC(=O)c1c(C)[nH]c(/C=C2\C(=O)Nc3ccc(Cl)cc32)c1C | 6
Cc1c(O)cc(O)c2c1OC(c1ccc(O)c(O)c1)C(=O)C2=O (stereo unspecified) | 3.29
O=c1[nH]c(O)c2c1c1c3ccccc3nc1n1cncc21 | 5.4
O=c1c(O)c(-c2ccc(O)c(O)c2)oc2cc(O)ccc12 | 8.54
O=C1NC(=O)C(c2c[nH]c3ccccc23)=C1c1c[nH]c2ccccc12 | 3.4
OCC(O)CCO/N=C1/C(c2c(O)[nH]c3ccccc23)=Nc2ccccc21 (stereo unspecified) | 11.7
O=Nc1c(-c2c(O)[nH]c3ccc(S(O)(O)O)cc23)[nH]c2ccccc12 | 5.7
NC(=O)Nc1sc(-c2ccccc2)cc1C(N)=O | 4.5
COc1cc(C2Oc3cc(O)cc(O)c3C(=O)C2=O)ccc1O (stereo unspecified) | 3.97
Cc1cc(Nc2nc(-c3ccccc3)nc3ccccc23)n[nH]1 | 11.1
CC(C)c1nn(-c2c(Cl)cccc2Cl)c2nc(Cc3ccc(OCCO)cc3)[nH]c(=O)c12 | 3.5
O=C1NCc2c1c1c3ccccc3[nH]c1c1[nH]c3ccccc3c21 | 3.9
O=C(c1ccc(Nc2nccc(-c3cc4ccccc4s3)n2)cc1)N1CCC(N2CCCC2)CC1 | 8.9
Nc1nc(Nc2ccc(S(N)(=O)=O)cc2)nn1C(=S)Nc1c(F)cccc1F | 7.8
O=Nc1c(-c2c(O)[nH]c3ccc(I)cc23)[nH]c2ccccc12 | 4.2
CC1N=C2SC=CN2C(=O)C1CCN1CCC(=C(c2ccccc2)c2ccc(F)cc2)CC1 (stereo unspecified) | 3.2
O=C(Nc1cccc(Nc2nccc(Nc3cccc(C(F)(F)F)c3)n2)c1)C1CC1 | 5.75
O=C1C(=O)C(c2cccc(O)c2)Oc2ccccc21 (stereo unspecified) | 4.41
O=c1cc(-c2ccc(O)c(O)c2)oc2cc(O)cc(O)c12 | 4.82
Cn1cc(/C=C2\C(=O)Nc3ccc(S(N)(=O)=O)cc32)c2ccccc21 | 4.8
O=c1c(O)c(-c2ccc(O)cc2)oc2cc(O)cc(O)c12 | 3.87
Cc1nc(N)sc1-c1ccnc(Nc2cccc(-n3oo3)c2)n1 | 10.7
NS(=O)(=O)c1ccc(Nc2nc(OCC3CCCCC3)c3[nH]cnc3n2)cc1 | 4.1
N#C/C(=C1\Nc2ccccc2S1)c1ccnc(NCCc2cccnc2)n1 | 5.5
CC(O)O/N=C1/C(c2c(O)[nH]c3cc(Br)ccc23)=Nc2ccccc21 (stereo unspecified) | 4.2
Nc1cccc(-c2cc3c(Oc4cccc(O)c4)ncnc3[nH]2)c1 | 5.9
NCCCn1cc(C2=C(c3c[nH]c4ccccc34)C(=O)NC2=O)c2ccccc21 | 4.96
O=c1cc(-c2ccccc2)oc2cc(O)cc(O)c12 | 5.74
